Key:
in vitro [1] = conditions: human, HCT8 cells
Description: Cytotoxicity against human HCT8 cells assessed as inhibition of cell proliferation at 100 uM after 4 hrs by MTT assay relative to control

[2] = molecular target: T1, Amine oxidase [flavin-containing] B (Homo sapiens, UniProt P27338); experiment: biochemical
T1 sequence (P27338 whole entry): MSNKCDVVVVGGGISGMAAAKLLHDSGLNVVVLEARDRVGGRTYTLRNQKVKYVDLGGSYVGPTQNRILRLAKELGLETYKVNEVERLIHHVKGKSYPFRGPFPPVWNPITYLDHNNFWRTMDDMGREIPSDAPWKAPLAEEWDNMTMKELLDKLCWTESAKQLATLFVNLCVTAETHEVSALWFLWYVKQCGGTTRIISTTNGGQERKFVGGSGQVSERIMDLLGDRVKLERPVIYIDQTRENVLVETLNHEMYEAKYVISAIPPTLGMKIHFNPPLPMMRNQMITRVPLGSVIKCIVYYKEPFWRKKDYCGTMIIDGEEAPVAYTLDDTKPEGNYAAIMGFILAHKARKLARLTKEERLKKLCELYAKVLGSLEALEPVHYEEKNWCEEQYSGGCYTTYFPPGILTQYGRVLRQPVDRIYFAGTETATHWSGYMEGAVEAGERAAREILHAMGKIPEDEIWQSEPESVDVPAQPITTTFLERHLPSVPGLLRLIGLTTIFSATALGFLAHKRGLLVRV
Description: Inhibition of recombinant human MAOB expressed in baculovirus infected BTI insect cells using beetle luciferin as substrate after 1 hr by MAO-Glo assay

[3] = molecular target: T2, Amine oxidase [flavin-containing] A (Homo sapiens, UniProt P21397); experiment: biochemical
T2 sequence (P21397 whole entry): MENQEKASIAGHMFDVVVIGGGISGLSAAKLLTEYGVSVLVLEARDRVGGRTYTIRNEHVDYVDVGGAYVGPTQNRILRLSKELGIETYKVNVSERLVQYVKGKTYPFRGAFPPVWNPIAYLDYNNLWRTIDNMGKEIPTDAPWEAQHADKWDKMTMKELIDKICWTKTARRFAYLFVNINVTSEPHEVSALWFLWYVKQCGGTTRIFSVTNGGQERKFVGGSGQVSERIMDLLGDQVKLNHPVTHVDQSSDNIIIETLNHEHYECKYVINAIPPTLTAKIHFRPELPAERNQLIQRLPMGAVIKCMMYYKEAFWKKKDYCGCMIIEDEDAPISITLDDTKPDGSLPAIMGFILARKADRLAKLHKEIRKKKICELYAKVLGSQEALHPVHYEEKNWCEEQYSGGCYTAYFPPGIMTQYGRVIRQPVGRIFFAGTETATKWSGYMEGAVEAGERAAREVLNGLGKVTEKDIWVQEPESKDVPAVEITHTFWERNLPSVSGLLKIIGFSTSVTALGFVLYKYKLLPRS
Description: Inhibition of recombinant human MAOA expressed in baculovirus infected BTI insect cells using beetle luciferin as substrate after 1 hr by MAO-Glo assay

in vitro [4] = conditions: human, SW620 cells
Description: Cytotoxicity against human SW620 cells assessed as inhibition of cell proliferation at 100 uM after 4 hrs by MTT assay relative to control

[5] = molecular target: Lysine-specific histone demethylase 1A (Homo sapiens, UniProt O60341)
Description: Inhibition of human N-terminal GST-tagged LSD1 isoform2 (158 to end residues) expressed in Escherichia coli using methylated peptide as substrate preincubated with substrate for 15 mins followed by enzyme addition and measured after 30 mins by amplex red and horseradish peroxidase based fluorescence assay

## O=C(CCC1NC(=O)NC1=O)NCCc1c[nH]c2ccccc12 (stereo not given)
In vitro [1]
  inhibition at 4 h, 100 µM: 35%
[2]
  IC50: > 200 µM
[3]
  IC50: > 200 µM
In vitro [4]
  inhibition at 4 h, 100 µM: 35%

## Cc1nc(-c2ccc(CN(C)Cc3cccc4cnccc34)cc2)[nH]c(=O)c1F
[5]
  IC50: > 100 µM

— ChEMBL document CHEMBL4330120, “Identification of selective and reversible LSD1 inhibitors with anti-metastasis activity by high-throughput docking” (Bioorg Med Chem Lett, 2019)
